Data from patent US20250052744A1, “Dyes and Uses Thereof” (The University of Liverpool, priority 2021, published 2025).
“Also recorded” adds a separate entry of the source.

Legend:
Experiment in all cases: Qualitative dye staining on agarose pads (EVOS M7000)
Format in all cases: cell-based
Parameters in all cases: key to Relative fluorescent intensity: Very high: If the cells looked twice as big in the fluorescent channel, it was marked as having “very high” relative fluorescent intensity; High: if the cells looked bigger in the fluorescent channel, it was marked as having “high” relative fluorescent intensity; Medium: If the cells looked almost the same size in the fluorescent channel and the bright field, it was marked as having “medium” relative fluorescent intensity; Low: If the cells looked smaller in the fluorescent channel as compared to the brightfield but still the whole cell was visible, it was marked as having “low” relative fluorescent intensity; Negligible: If only a few traces of a cell was visible in the fluorescent channel, it was marked as having “negligible” relative fluorescent intensity
Conditions in all cases: DiSC3(5) 3 μM, SYBR Green I 10×, SYTO 13 3 μM, FM4-64 15 μM
Proteus mirabilis = tested on: Proteus mirabilis
Procedure: (§1) An overnight culture was prepared by inoculating a bacterial colony in approximately 5 ml of Urine and incubating the culture in an orbital shaker at 37° C.
(§2) The following media and materials were utilised: Cation-adjusted Mueller Hinton broth (MHB); Phosphate Buffered Saline (PBS); Membrane staining dye—FM4-64 (1.5 mM); Live cell staining dye—DiSC3(5) (1 mM); DNA staining dye—SYBR Green (1000×); DNA staining dye—SYTO 13 (0.5 mM); Ultrapure Agarose; Parafilm; Glass slides and coverslips; Scalpel; and EVOS M7000 fluorescent microscope.
(§3) A pre-cut parafilm or a coverslip was used as a guide and 22 mm×22 mm squares cut from parafilm. A square was cut out of the centre of the parafilm (approximately 10 mm×10 mm). The centre of the cut-out was discarded. Two parafilm gaskets were placed onto a cleaned glass slide. The glass slide was then placed on a dry bath set to 56° C. so that the parafilm adhered to the glass slide. The glass slide was then kept on the dry bath. Using a microwave, ultrapure agarose was dissolved in PBS at a concentration of 1.2%. The agarose solution was kept on a dry bath set at 56° C. 60 μl of the agarose solution was pipetted in the centre of the parafilm gaskets. A coverslip was then placed over the gaskets without applying pressure on the coverslip. The slide was then placed on a cool surface and left to solidify for 1-2 minutes. The coverslips were then gently lifted off the agarose pads.
(§4) In a first Eppendorf, 15 μl of FM4-64 and 6 μl of SYTO 13 was added and in a second Eppendorf 10 μl of SYBR Green and 3 μl of DiSC3(5) was added. Depending on the bacterial growth in urine, an appropriate concentration of the bacterial culture was placed in the two Eppendorfs (final bacterial concentration 10^6 CFU/ml). MHB was added so as to achieve a final volume of 1 ml. Final concentrations of the dyes in the sample was as follows: DiSC3(5): 3 μM; SYBR Green I: 10× (originally supplied as 10,000×); SYTO 13: 3 μM; and FM4-64: 15 μM
(§5) 4 μl of the contents of each Eppendorf were deposited on one agarose pad and the cells distributed across the agar surface by tilting the slide. The slide was left to dry for approximately 1 minute. A coverslip was then placed on top of the agarose pad. The slide was placed inside the microscope and incubated at 37° C. for 10 minutes. Using different light filters for each dye, an image of each pad at 40× magnification on an EVOS M7000 fluorescent microscope was captured. Eight images for each agarose pad was recorded (i.e. 8 each for brightfield and 2 fluorescent channels). For each agarose pad, 24 images were recorded. This corresponded to 48 images in total for each bacterial strain (2 agarose pads per strain). Table A below was used to take the images using the correct fluorescent channel and intensity (for imagining on any other instrument, the LED intensity will need to be normalised against the EVOS M7000).
(§6) To qualitatively calculate the relative fluorescent intensities, cell size was compared between brightfield and the fluorescent channel for a given fluorescent dye. If the cells are very fluorescent, they will appear bigger in the fluorescent channel as compared to the bright field. For our qualitative measurements, if the cells looked bigger in the fluorescent channel, it was marked as having “high” relative fluorescent intensity. If the cells looked twice as big in the fluorescent channel, it was marked as having “very high” relative fluorescent intensity. If the cells looked almost the same size in the fluorescent channel and the bright field, it was marked as having “medium” relative fluorescent intensity. If the cells looked smaller in the fluorescent channel as compared to the brightfield but still the whole cell was visible, it was marked as having “low” relative fluorescent intensity. If only a few traces of a cell was visible in the fluorescent channel, it was marked as having “negligible” relative fluorescent intensity.

Pseudomonas aeruginosa = tested on: Pseudomonas aeruginosa
Procedure: as §1, §2, §3, §4, §5, §6

Cory. Urealyticum = tested on: Cory. Urealyticum
Procedure: as §1, §2, §3, §4, §5, §6

[1] = Table 7 commercial strain Proteus mirabilis NCTC 10975
[2] = Table 7 commercial strain Proteus mirabilis NCTC 11938
[3] = Table 8 sample Proteus mirabilis (021)
[4] = Table 8 sample Proteus mirabilis (022)
[5] = Table 8 sample Proteus mirabilis (023)
[6] = Table 6 thresholds, Pseudomonas aeruginosa
[7] = Table 7 commercial strain Pseudomonas aeruginosa NCTC 10332
[8] = Table 7 commercial strain Pseudomonas aeruginosa NCTC 13715
[9] = Table 8 sample Pseudomonas aeruginosa (031)
[10] = Table 8 sample Pseudomonas aeruginosa (032)
[11] = Table 8 sample Pseudomonas aeruginosa (033)
[12] = Table 8 sample Cory. Urealyticum (1001)
[13] = Table 8 sample Cory. Urealyticum (1002)

Which results are given for CCCN1C(=CC=CC=Cc2sc3ccccc3[n+]2CCC)Sc2ccccc21.[I-] [DiSC3(5), 3,3′-Dipropylthiadicarbocyanine Iodide]?
Percentage of cells stained (Proteus mirabilis; [1]): Almost all; Relative fluorescent intensity (Proteus mirabilis; [1]): Medium; Percentage of cells stained (Proteus mirabilis; [2]): Almost all; Relative fluorescent intensity (Proteus mirabilis; [2]): Low; Percentage of cells stained (Proteus mirabilis; [3]): Almost all; Relative fluorescent intensity (Proteus mirabilis; [3]): Low; Percentage of cells stained (Proteus mirabilis; [4]): Almost all; Relative fluorescent intensity (Proteus mirabilis; [4]): Medium; Percentage of cells stained (Proteus mirabilis; [5]): Almost all; Relative fluorescent intensity (Proteus mirabilis; [5]): Medium; Percentage of cells stained (Pseudomonas aeruginosa; [6]): Few; Relative fluorescent intensity (Pseudomonas aeruginosa; [6]): no or negligible staining; also recorded: Negligible; Percentage of cells stained (Pseudomonas aeruginosa; [7]): Few; Relative fluorescent intensity (Pseudomonas aeruginosa; [7]): Negligible; Percentage of cells stained (Pseudomonas aeruginosa; [8]): Few; Relative fluorescent intensity (Pseudomonas aeruginosa; [8]): Negligible; Percentage of cells stained (Pseudomonas aeruginosa; [9]): Few; Relative fluorescent intensity (Pseudomonas aeruginosa; [9]): Negligible; Percentage of cells stained (Pseudomonas aeruginosa; [10]): Few; Relative fluorescent intensity (Pseudomonas aeruginosa; [10]): Negligible; Percentage of cells stained (Pseudomonas aeruginosa; [11]): Few; Relative fluorescent intensity (Pseudomonas aeruginosa; [11]): Negligible; Percentage of cells stained (Cory. Urealyticum; [12]): Few; Relative fluorescent intensity (Cory. Urealyticum; [12]): Negligible; Percentage of cells stained (Cory. Urealyticum; [13]): Few; Relative fluorescent intensity (Cory. Urealyticum; [13]): Negligible

For CCN(CC)c1ccc(C=CC=CC=Cc2cc[n+](CCC[N+](CC)(CC)CC)cc2)cc1.[Br-].[Br-] [FM 4-64, N-(3-Triethylammoniumpropyl)-4-(6-(4-(Diethylamino) Phenyl) Hexatrienyl) Pyridinium Dibromide], which “Percentage of cells stained” value (Proteus mirabilis; [1]) is on record?
The value was “Few”.

What about the Relative fluorescent intensity (Proteus mirabilis; [1]) of the same compound?
The Relative fluorescent intensity was “Negligible”.

What about the “Percentage of cells stained” value (Proteus mirabilis; [2]) of the same compound?
The value was “Few”.

And the Relative fluorescent intensity (Proteus mirabilis; [2])?
The Relative fluorescent intensity was “Negligible”.

What about the “Percentage of cells stained” value (Proteus mirabilis; [3]) of the same compound?
Its value is “Few”.

What about the Relative fluorescent intensity (Proteus mirabilis; [3]) of the same compound?
The Relative fluorescent intensity was “Negligible”.

What about the “Percentage of cells stained” value (Proteus mirabilis; [4]) of the same compound?
Its value is “Few”.

What about the Relative fluorescent intensity (Proteus mirabilis; [4]) of the same compound?
Its Relative fluorescent intensity is “Negligible”.

What about the “Percentage of cells stained” value (Proteus mirabilis; [5]) of the same compound?
The value was “Few”.

And the Relative fluorescent intensity (Proteus mirabilis; [5])?
The Relative fluorescent intensity was “Negligible”.

What about the “Percentage of cells stained” value (Pseudomonas aeruginosa; [6]) of the same compound?
The value was “Almost all”.

What about the Relative fluorescent intensity (Pseudomonas aeruginosa; [6]) of the same compound?
The Relative fluorescent intensity was “Low”.

And the “Percentage of cells stained” value (Pseudomonas aeruginosa; [7])?
Its value is “Almost all”.

And the Relative fluorescent intensity (Pseudomonas aeruginosa; [7])?
The Relative fluorescent intensity was “Negligible”.

And the “Percentage of cells stained” value (Pseudomonas aeruginosa; [8])?
Its value is “Almost all”.

And the Relative fluorescent intensity (Pseudomonas aeruginosa; [8])?
Its Relative fluorescent intensity is “Low”.

What about the “Percentage of cells stained” value (Pseudomonas aeruginosa; [9]) of the same compound?
The value was “Almost all”.

And the Relative fluorescent intensity (Pseudomonas aeruginosa; [9])?
The Relative fluorescent intensity was “Low”.

What about the “Percentage of cells stained” value (Pseudomonas aeruginosa; [10]) of the same compound?
Its value is “Almost all”.

What about the Relative fluorescent intensity (Pseudomonas aeruginosa; [10]) of the same compound?
The Relative fluorescent intensity was “Low”.

And the “Percentage of cells stained” value (Pseudomonas aeruginosa; [11])?
Its value is “Almost all”.

And the Relative fluorescent intensity (Pseudomonas aeruginosa; [11])?
Its Relative fluorescent intensity is “Low”.

And the “Percentage of cells stained” value (Cory. Urealyticum; [12])?
The value was “Few”.

What about the Relative fluorescent intensity (Cory. Urealyticum; [12]) of the same compound?
The Relative fluorescent intensity was “Negligible”.

What about the “Percentage of cells stained” value (Cory. Urealyticum; [13]) of the same compound?
Its value is “Few”.

What about the Relative fluorescent intensity (Cory. Urealyticum; [13]) of the same compound?
The Relative fluorescent intensity was “Negligible”.

Which results are given for CCCN(CCCN(C)C)c1cc(/C=C2/Sc3ccccc3N2C)c2ccccc2[n+]1-c1ccccc1 [SYBR Green I, N′,N′-dimethyl-N-[4-[(E)-(3-methyl-1,3-benzothiazol-2-ylidene)methyl]-1-phenylquinolin-1-ium-2-yl]-N-propylpropane-1,3-diamine]?
Percentage of cells stained (Proteus mirabilis; [1]): Half; Relative fluorescent intensity (Proteus mirabilis; [1]): Low; Percentage of cells stained (Proteus mirabilis; [2]): Half; Relative fluorescent intensity (Proteus mirabilis; [2]): Low; Percentage of cells stained (Proteus mirabilis; [3]): Half; Relative fluorescent intensity (Proteus mirabilis; [3]): Low; Percentage of cells stained (Proteus mirabilis; [4]): Half; Relative fluorescent intensity (Proteus mirabilis; [4]): Low; Percentage of cells stained (Proteus mirabilis; [5]): Half; Relative fluorescent intensity (Proteus mirabilis; [5]): Low; Percentage of cells stained (Pseudomonas aeruginosa; [6]): Almost all; Relative fluorescent intensity (Pseudomonas aeruginosa; [6]): Low; Percentage of cells stained (Pseudomonas aeruginosa; [7]): Almost all; Relative fluorescent intensity (Pseudomonas aeruginosa; [7]): Low; Percentage of cells stained (Pseudomonas aeruginosa; [8]): Almost all; Relative fluorescent intensity (Pseudomonas aeruginosa; [8]): Low; Percentage of cells stained (Pseudomonas aeruginosa; [9]): Almost all; Relative fluorescent intensity (Pseudomonas aeruginosa; [9]): Low; Percentage of cells stained (Pseudomonas aeruginosa; [10]): Almost all; Relative fluorescent intensity (Pseudomonas aeruginosa; [10]): Low; Percentage of cells stained (Pseudomonas aeruginosa; [11]): Almost all; Relative fluorescent intensity (Pseudomonas aeruginosa; [11]): Low; Percentage of cells stained (Cory. Urealyticum; [12]): Few; Relative fluorescent intensity (Cory. Urealyticum; [12]): Negligible; Percentage of cells stained (Cory. Urealyticum; [13]): Few; Relative fluorescent intensity (Cory. Urealyticum; [13]): Negligible
